# Test results taken from ChEMBL document CHEMBL3044750, “Preparation of N-substituted aryl and alkyl carbamates and their inhibitory effect on oat seed germination” (2002).
# Assays:
# Avena sativa [1] = experiment: Inhibition of Avena sativa var. Zenshin seed germination assessed as root length at 1 uM after 6 days (reference value: 7 cm); format: functional
# Avena sativa [2] = experiment: Inhibition of Avena sativa var. Zenshin seed germination assessed as coleoptile length at 1 uM after 6 days (reference value: 9.5 cm); format: functional
SMILES,Activity (Avena sativa [1]) [cm],Activity (Avena sativa [2]) [cm]
"O=C(NCSc1ccccc1)Oc1ccc(Cl)cc1Cl [2,4-DICHLOROPHENYL PHENYLTHIOMETHYLCARBAMATE]",0,0
O=C(Nc1ccccc1)OCCCc1ccccc1 [3-PHENYLPROPYL PHENYLCARBAMATE],1.9,3.5
O=C(NCSc1ccccc1)OCCCc1ccccc1 [3-PHENYLPROPYL PHENYLTHIOMETHYLCARBAMATE],3.9,4.6
COc1ccc(COC(=O)NCSc2ccccc2)cc1 [4-METHOXYBENZYL PHENYLTHIOMETHYLCARBAMATE],0.9,1.4
O=C(Nc1ccccc1)OCCCCc1ccccc1 [4-PHENYLBUTYL PHENYLCARBAMATE],1.2,4.9
O=C(Nc1ccccc1)OCCCCCc1ccccc1 [5-PHENYLPENTYL PHENYLCARBAMATE],2.1,6.6
O=C(NCCc1ccccc1)OCc1ccccc1 [BENZYL PHENETHYLCARBAMATE],2.8,5.2
O=C(Nc1ccccc1)OCc1ccccc1 [BENZYL PHENYLCARBAMATE],1.2,2.8
O=C(NCSc1ccccc1)OCc1ccccc1 [BENZYL PHENYLTHIOMETHYLCARBAMATE],0,0
CCCCOC(=O)NCSc1ccccc1 [BUTYL PHENYLTHIOMETHYLCARBAMATE],3.4,2.6
CC(C)OC(=O)Nc1cccc(Cl)c1 [CHLORPROPHAM],0,0
O=C(Nc1ccccc1)OC/C=C/c1ccccc1 [CINNAMYL PHENYLCARBAMATE],0.4,3.4
O=C(NCSc1ccccc1)OC/C=C/c1ccccc1 [CINNAMYL PHENYLTHIOMETHYLCARBAMATE],2.6,2.2
CCOC(=O)NCSc1ccccc1 [ETHYL PHENYLTHIOMETHYLCARBAMATE],1,0.8
CC(C)OC(=O)NCSc1ccccc1 [ISOPROPYL PHENYLTHIOMETHYLCARBAMATE],0,0
COC(=O)NCSc1ccccc1 [METHYL PHENYLTHIOMETHYLCARBAMATE],0,0
O=C(Nc1ccccc1)OCCc1ccccc1 [PHENETHYL PHENYLCARBAMATE],0.2,0.3
O=C(NCSc1ccccc1)OCCc1ccccc1 [PHENETHYL PHENYLTHIOMETHYLCARBAMATE],0,0
O=C(Nc1ccc(Cl)cc1)Oc1ccccc1 [PHENYL 4-CHLOROPHENYLCARBAMATE],4.1,8.1
O=C(Nc1ccc(F)cc1)Oc1ccccc1 [PHENYL 4-FLUOROPHENYLCARBAMATE],4.8,6.4
COc1ccc(NC(=O)Oc2ccccc2)cc1 [PHENYL 4-METHOXYPHENYLCARBAMATE],7.7,8.3
Cc1cccc(NC(=O)Oc2ccccc2)c1 [PHENYL M-TOLYLCARBAMATE],4.4,5.6
O=C(Nc1ccccc1)Oc1ccccc1 [PHENYL PHENYLCARBAMATE],1.9,4.7
O=C(NCSc1ccccc1)Oc1ccccc1 [PHENYL PHENYLTHIOMETHYLCARBAMATE],0,0
CCCOC(=O)NCSc1ccccc1 [PROPYL PHENYLTHIOMETHYLCARBAMATE],1.4,1.7
